{"source": "patent US8318813B2", "about": "“Method of treating binge eating disorder” (LCS Group, LLC, priority 2007, dated 2012)", "key": {"[1]": {"system": "patient with Binge Eating Disorder, Medication-Induced Cognitive Problems, and Fatigue", "assay": "Case report Example 5: VYVANSE added to existing regimen", "format": "in vivo, human", "description": "The patient previously has been treated with therapy and has had multiple prior medication trials, either discontinued due to lack of efficacy or side effects, including ZOLOFT (sertraline), CELEXA (citalopram), PROZAC (fluoxetine), LEXAPRO (escitalopram), WELLBUTRIN SR (bupropion HCl), NORTRIPTYLINE, ATIVAN (lorazepam), ABILIFY (aripiprazole), RISPERDAL (risperidone), SEROQUEL (quetiapine), LYRICA (pregabalin), and RITALIN (methylphenidate). Selective serotonin reuptake inhibitors exacerbated binge eating symptoms and caused problematic weight gain. For treatment of depression with comorbid anxiety, binge-eating, and weight-gain related to binge eating symptoms, the patient was maintained on a medication regimen that included TOPAMAX (topiramate) 175 mg in the morning and 200 mg at night, LAMICTAL (lamotrigine) 200 mg in the morning, CYTOMEL (liothyronine) 25 mcg per day, KLONOPIN (clonazepam) 0.25 mg at bed time, and NEURONTIN (gabapentin) 600 mg at bedtime. […] Given prior poor response to a number of different classes of medication trials, off-label use of VYVANSE was initiated at 30 mg each morning to target a constellation of symptoms, including symptoms of major depression, binge-eating disorder, fatigue, and concentration problems. VYVANSE was maintained at 30 mg each morning for weeks before being discontinued due to adverse effects. […] However, there appeared to be no benefit on the patient's depressed mood, amotivation, and feelings of hopelessness.\nThis case exemplifies the clinical benefit of lisdexamfetamine dimesylate on binge-eating symptoms and potentially on weight-gain related to binging (body weight was not obtained), though longer-term treatment was cut short by adverse effects at the 30 mg dosage form. Given the number of failed prior trials, off-label use of VYVANSE was clinically indicated, especially given the severity of binge eating behavior."}, "[2]": {"system": "Patient with Comorbid Generalized Anxiety Disorder, Major Depression, and ADHD", "assay": "Case report Patient 6: VYVANSE added to PAXIL", "experimental": "The patient was maintained on PAXIL (paroxetine) 30 mg per day following a significant comorbid major depressive episode associated with anxiety symptoms, and a history consistent with Generalized Anxiety Disorder. […] However, after beginning a new job with more challenging responsibilities, the patient was unable to compensate for such deficits and a pattern of obsessive ruminations emerged, often involving work. In addition to perseverative and obsessive thinking, the patient experienced heightened anxiety and mild depressive symptoms, including fatigue, low mood, and amotivation, especially while at work. After discussing medication options and side effect concerns, VYVANSE was initiated to address underlying ADHD symptoms, which were felt to drive the patient's perseverative thinking, anxious ruminations, and low mood. […] PAXIL was maintained at 30 mg per day."}, "[3]": {"system": "Patient with ADHD, Generalized Anxiety Disorder, and Obsessive-Compulsive Behavior", "assay": "Case report Example 3: VYVANSE", "format": "in vivo, human", "description": "The patient is a non-geriatric adult diagnosed with a history of ADHD, inattentive type, and comorbid Generalized Anxiety Disorder, though had no prior treatment. Presenting ADHD symptoms included difficulty sustaining attention and attending to details, difficulty organizing tasks with tendencies toward avoidance, distractibility, and problems finishing tasks that have been initiated. Symptoms of Generalized Anxiety Disorder included frequent and intense ruminative worrying, feeling overly fatigued, muscle tension and intermittent problems with sleep. […] The patient was started on VYVANSE 30 mg in the morning, along with TRAZODONE 50 mg at bedtime. VYVANSE was maintained at 30 mg once daily in the morning for one week, followed by one week at 50 mg per day, and then 70 mg per day, taken in the morning. […] The patient maintained treatment on VYVANSE at 70 mg per day for 10 weeks; TRAZODONE 50 mg at bedtime was discontinued after 4 weeks as sleep patterns had sufficiently normalized. […] The patient previously felt little or no control around such worrying, ruminative behavior and speculated that it caused significant mental and even physical fatigue.\nStimulant medications have traditionally been associated with causing or worsening anxiety symptoms (for instance, being ‘anxiogenic’)."}, "[4]": {"system": "Patient with Comorbid Depressive Disorders and Binge Eating Behavior", "assay": "Case report Example 4: VYVANSE", "format": "in vivo, human", "description": "The patient also endorsed symptoms of ADHD, inattentive type, primarily around problems with organizing tasks, procrastination of work activities, and problems completing projects, though such ‘inattention’ symptoms were considered as clinically less detrimental than feeling chronically depressed, lacking motivation or interest in work or social activities, feeling fatigued and sometimes guilty, and having gained weight over several years due to ‘emotional eating’ behavior. The patient had received therapy in the past to address depressive episodes and associated life stressors, with modest benefit. The patient also described a history of ‘emotional eating’ that could occur at any time of day though more often in the late afternoons or early evenings. Such ‘emotional eating’ was often triggered by stressful situations or events, accompanied by an urge to eat, and would typically lead to excess consumption of carbohydrate-based foods. In recent years, the patient reported having gained over 10% body weight and noted a general trend toward increasing emotional eating and binging behavior. More severe binges occurred at least several times per month over a stretch of several years, though were much less common than ‘emotional eating’ that was milder in nature and occurred nearly daily. […] The patient was maintained on VYVANSE for 10 weeks at 50 mg per day. […] Symptoms of emotional eating were improved in the evenings as well, with less than one per week on average as compared to most evenings previously. […] The organization and execution of work-related tasks improved during the course of treatment as well.\nThe patient also began a trend of weight loss on account of decreased emotional eating and binging. The patient's ADHD was also clinically relevant, which is the primary reason VYVANSE was chosen as the initial medication treatment, though it was not the reason for which evaluation and treatment was sought and of secondary importance with regard to symptoms causing the patient difficulty and concern. […] Binge-eating behavior, largely taking the form of ‘self-soothing’ eating activity with potentially serious risks in this patient insofar as it was causing steady increased weight gain to the point of obesity), responded remarkably well to treatment with VYVANSE."}, "[5]": {"details": "once per day dosing; cited from earlier work"}, "[6]": {"system": "Patient with Binge Eating Disorder and Major Depressive Disorders", "assay": "Case report Patient 2: lisdexamfetamine dimesylate monotherapy"}, "[7]": {"system": "Patient with Major Depressive Disorders and Binge Eating Disorder", "assay": "Case report Patient 1: lisdexamfetamine dimesylate added to ZOLOFT"}}, "data": [{"smiles": "CC1(C)O[C@@H]2[C@@H](CO[C@@]3(COS(N)(=O)=O)OC(C)(C)O[C@@H]23)O1", "note": "[TOPAMAX, topiramate]", "values": [{"measurement": "binge eating behavior", "setting": "[1]; TOPAMAX 175 mg in the morning and 200 mg at night, clinically insufficient", "value": "helped reduce"}, {"measurement": "tolerability", "setting": "[1]; in vivo", "value": "poorly tolerated at higher doses due to cognitive side effects"}]}, {"smiles": "Fc1ccc([C@@H]2CCNC[C@H]2COc2ccc3c(c2)OCO3)cc1", "note": "[PAXIL, paroxetine]", "values": [{"measurement": "depressive and anxiety symptoms", "setting": "[2]; PAXIL 30 mg per day", "value": "rapidly stabilized"}]}, {"smiles": "CS(=O)(=O)O.CS(=O)(=O)O.C[C@@H](Cc1ccccc1)NC(=O)[C@@H](N)CCCCN", "note": "[lisdexamfetamine dimesylate, (2S)-2,6-diamino-N-[(1S)-1-methyl-2-phenylethyl]hexanamide dimethanesulfonate]", "values": [{"measurement": "compulsive ruminating and worrying", "setting": "[3]; 70 mg per day", "value": "highly significant improvement"}, {"measurement": "ability to sustain attention and attend to details, organize and finish projects, process information", "setting": "[3]; 70 mg per day, compared to previous baseline function", "value": "significantly enhanced"}, {"measurement": "inattention symptoms", "setting": "[3]; after 10 weeks at 70 mg per day", "value": "only mildly affected"}, {"measurement": "'wear off' during treatment of Generalized Anxiety Disorder symptoms", "setting": "[3]; for the duration of the day", "value": "no problematic ‘wear off’"}, {"measurement": "ADHD and Generalized Anxiety Disorder symptoms", "setting": "[3]; within the first week, 30 mg in the morning with TRAZODONE 50 mg at bedtime", "value": "positive effect"}, {"measurement": "adverse effects", "setting": "[4]; 30 mg per day for two weeks, increased to 50 mg per day", "value": "without any adverse effects"}, {"measurement": "emotional eating behavior in the afternoon", "setting": "[4]; 50 mg daily", "value": "abrupt and sustained cessation"}, {"measurement": "depressive symptoms", "setting": "[4]; 10 weeks at 50 mg per day", "value": "significant amelioration"}, {"measurement": "major binges", "setting": "[4]; at any point while taking VYVANSE, before at least several times per month", "value": "no reported major binges"}, {"measurement": "organization and execution of work-related tasks", "setting": "[4]; during the course of treatment", "value": "improved"}, {"measurement": "emotional eating in the evenings", "setting": "[4]; on average, compared to most evenings previously", "value": "less than one"}, {"measurement": "weight lost", "setting": "[4]; over 2½ months of treatment", "value": "6-7 pounds"}, {"measurement": "absolute binges per week", "setting": "[1]; 30 mg each morning", "value": "fewer"}, {"measurement": "binge-eating days per week", "setting": "[1]; 30 mg each morning", "value": "fewer"}, {"measurement": "depressed mood, amotivation, and feelings of hopelessness", "setting": "[1]; 30 mg each morning", "value": "no benefit"}, {"measurement": "fatigue and concentration throughout the day", "setting": "[1]; 30 mg each morning", "value": "improvement"}, {"measurement": "urge to binge", "setting": "[1]; 30 mg each morning, during the time of treatment", "value": "notably reduced"}, {"measurement": "adverse effects leading to discontinuation", "setting": "[1]; 30 mg each morning, with TOPAMAX, LAMICTAL, CYTOMEL, KLONOPIN, NEURONTIN", "value": "excessive appetite suppression and visual blurring"}, {"measurement": "adverse effect", "setting": "[2]; 30 mg per day for one week, titrated to 50 mg per day", "value": "without adverse effect"}, {"measurement": "ADHD, Generalized Anxiety Disorder, and Major Depressive Disorder symptoms", "setting": "[2]; ensuing 9 weeks, with PAXIL 30 mg per day", "value": "improvement"}, {"measurement": "weight loss", "setting": "[2]; over 2 months of treatment, VYVANSE 50 mg per day with PAXIL 30 mg per day", "value": "4-5%"}, {"measurement": "mood, motivation and energy", "setting": "[2]; with PAXIL 30 mg per day", "value": "improved"}, {"measurement": "worrying", "setting": "[2]; with PAXIL 30 mg per day", "value": "substantial reduction"}, {"measurement": "time after administration for which significant effects have been demonstrated", "setting": "[5]", "value": "up to 12 hours"}, {"measurement": "ADHD symptoms", "setting": "[6]; Patient 2", "value": "as effective as […] XR"}, {"measurement": "triglyceride levels", "setting": "[6]; end of 5 weeks of treatment, 271 mg/dL prior to treatment", "value": 160, "unit": "mg/dL"}, {"measurement": "binging episodes", "setting": "[6]; first 2 weeks of treatment, before at least two days per week", "value": "only once"}, {"measurement": "depressive symptoms (depressed mood, interest level, sleep quality, physical fatigue)", "setting": "[6]; monotherapy, about 10 weeks", "value": "overall improvement"}, {"measurement": "total body weight lost", "setting": "[6]; obese patient, about 10 weeks on lisdexamfetamine dimesylate (70 mg from day 3)", "value": "approximately 7%"}, {"measurement": "binging episodes", "setting": "[6]; subsequent 8 weeks of treatment", "value": "stopped entirely"}, {"measurement": "depressive symptoms", "setting": "[7]; 8 weeks of maintenance on 70 mg in addition to 100 mg ZOLOFT (sertraline)", "value": "full remission"}, {"measurement": "binging days", "setting": "[7]; for the 8 weeks at 70 mg daily along with 100 mg ZOLOFT", "value": "no more than 3"}, {"measurement": "reduction of binging eating days per month", "setting": "[7]; from approximately 12 or more to no more than 3 per month", "value": "approximately 75%"}, {"measurement": "binge eating days per month", "setting": "[7]; while taking lisdexamfetamine dimesylate, before approximately 12 or more per month", "value": "no more than 3 per month"}]}]}
